Assay results from BindingDB's records for doi:10.1021/jm00034a005 (University of Paris, 1994).

Molecular target: Neprilysin
Assay: In vivo inhibitory potency against neutral endopeptidase by displacement of [3H]HACBOGly binding in mouse kidney

| Structure (SMILES) | IC50 |
| --- | --- |
| CC(NC(=O)C(CS)C(C)c1ccc2c(c1)OCO2)C(=O)O (stereo not given) [2-(3-Benzo[1,3]dioxol-5-yl-2-mercaptomethyl-butyrylamino)-propionic acid] | 2 nM |
| CC(c1ccc(N)cc1)C(CS)C(=O)NC(Cc1ccc(O)cc1)C(=O)O (stereo not given) [2-[3-(4-Amino-phenyl)-2-mercaptomethyl-butyrylamino]-3-(4-hydroxy-phenyl)-propionic acid] | 16 nM |
| CC(NC(=O)C(CS)C(C)c1ccc(F)c(F)c1)C(=O)O (stereo not given) [2-[3-(3,4-Difluoro-phenyl)-2-mercaptomethyl-butyrylamino]-propionic acid] | 3.5 nM |
| CC(c1ccc(F)cc1)C(CS)C(=O)NC(Cc1ccc(O)cc1)C(=O)O (stereo not given) [2-[3-(4-Fluoro-phenyl)-2-mercaptomethyl-butyrylamino]-3-(4-hydroxy-phenyl)-propionic acid] | 5.9 nM |
| CCC(NC(=O)C(CS)C(C)c1ccccc1)C(=O)O (stereo not given) [2-(2-Mercaptomethyl-3-phenyl-butyrylamino)-butyric acid] | 6.3 nM |
| CC(NC(=O)C(CS)C(C)c1ccc(F)cc1)C(=O)O (stereo not given) [2-[3-(4-Fluoro-phenyl)-2-mercaptomethyl-butyrylamino]-propionic acid] | 2 nM |
| CC(c1ccc(F)c(F)c1)C(CS)C(=O)NC(Cc1ccc(O)cc1)C(=O)O (stereo not given) [2-[3-(3,4-Difluoro-phenyl)-2-mercaptomethyl-butyrylamino]-3-(4-hydroxy-phenyl)-propionic acid] | 5.2 nM |

Further lines, results first:

| IC50 | Structure (SMILES) |
| --- | --- |
| 2 nM | O=C(NC(Cc1ccc(O)cc1)C(=O)O)C(CS)Cc1ccccc1 (stereo not given) [3-(4-Hydroxy-phenyl)-2-(2-mercaptomethyl-3-phenyl-propionylamino)-propionic acid] |
| 9 nM | CC(c1ccc(O)cc1)C(CS)C(=O)NC(Cc1ccc(O)cc1)C(=O)O (stereo not given) [3-(4-Hydroxy-phenyl)-2-[3-(4-hydroxy-phenyl)-2-mercaptomethyl-butyrylamino]-propionic acid] |
| 4 nM | CC(c1ccccc1)C(CS)C(=O)NC(COCc1ccccc1)C(=O)O (stereo not given) [3-Benzyloxy-2-(2-mercaptomethyl-3-phenyl-butyrylamino)-propionic acid] |
